Earlier results in patent US4174406A, “Terpenylaminoalkanol fish toxicants” (priority 1977, dated 1979).
Where two headings read alike, the source gives them in different places.

Test system: Carp
Settings: registered fish toxicants, cited from earlier work

Row | Molecule | effect of water pH on activity | selectivity for carp | effect of water pH on activity (listed as antimyein)
1 | C=C(C)[C@H]1Cc2c(ccc3c2O[C@@H]2COc4cc(OC)c(OC)cc4[C@@H]2C3=O)O1 [Rotenone] | adversely affected by waters of high pH | non-selective for carp | –
2 | antimycin | adversely affected by pH | non-selective for carp | adversely affected by waters of high pH
